Assay: Blood glucose depression profile after subcutaneous injection in fasted normal non-diabetic rats
Format: in vivo, Male Sprague-Dawley rats
Description: Subcutaneous injections of the insulin-dextran were administered using 0.25 ml of a sterilized 1×PBS solution ([…] of equivalent insulin/ml) behind the neck of fasted normal non-diabetic rats (Male Sprague-Dawley, 200-250 g, n=4). Blood samples were collected via tail vein bleeding at −15 and 0 minutes, and at 15, 30, 45, 60, 90, 120, 180, 240, 300 and 360 minutes after injection.
This example evaluates the in vivo pharmacodynamic profile of subcutaneously administered insulin-glycogen. The insulin-glycogen conjugate was synthesized according to Example 8. The bioactivity of the insulin-glycogen conjugate was evaluated by injecting a 2.5 equivalent U of insulin/kg dose behind the neck of fasted normal non-diabetic rats (Male Sprague-Dawley, 200-250 g, n=4). Blood samples were collected via tail vein bleeding at −15 and 0 minutes, and at 15, 30, 45, 60, 90, 120, 180, 240, 300 and 360 minutes after injection. […] This rapid action and elimination profile is due to the rapid enzymatic digestion of the high MW glycogen polymer chain following subcutaneous injection.

[1] = 0.25 ml of 20 U of equivalent insulin/ml, FIG. 5

Substance	time serum glucose levels remain depressed post injection [1]	time to reach the glucose nadir (Tnadir) [1]	glucose lowering as compared to the insulin-dextran conjugates (2.5 equivalent U of insulin/kg, FIG. 6)
insulin-dextran: comparative conjugate of recombinant human insulin and dextran (MW 70K) made by CNBr coupling	at least five	about 3 hours	
insulin-glycogen: comparative conjugate of insulin and oyster glycogen (Type II) made by CNBr coupling, Example 8			lower glucose levels much more rapidly and to a greater extent

From patent publication US9095623B2, “Terminally-functionalized conjugates and uses thereof” (SmartCells, Inc., priority 2009, dated 2015)
